≈ marks a conversion by molar mass, not a printed value. Calls of active or inactive are those of the source. No cut-off for these calls is given here.
Columns and labels:
[1] = target: T1, Gonadotropin-releasing hormone receptor (Rattus norvegicus, UniProt P30969); experiment: Displacement of [D-Trp6]-GnRH from rat recombinant GnRH receptor
T1 sequence (P30969 whole entry): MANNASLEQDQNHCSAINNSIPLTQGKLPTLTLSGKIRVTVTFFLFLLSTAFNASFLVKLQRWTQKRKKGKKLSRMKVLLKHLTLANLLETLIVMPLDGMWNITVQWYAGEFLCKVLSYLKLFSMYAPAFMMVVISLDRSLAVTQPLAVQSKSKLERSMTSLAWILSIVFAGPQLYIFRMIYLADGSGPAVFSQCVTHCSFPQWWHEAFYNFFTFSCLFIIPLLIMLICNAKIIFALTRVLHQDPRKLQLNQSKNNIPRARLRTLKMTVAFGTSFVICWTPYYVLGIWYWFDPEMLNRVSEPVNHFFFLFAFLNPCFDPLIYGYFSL

[2] = target: T2, Gonadotropin-releasing hormone receptor (Homo sapiens, UniProt P30968); experiment: Antagonist activity at human GnRH receptor assessed as inhibition of [D-Trp6]-GnRH-stimulated [3H]IP […]; assay type: functional
T2 sequence (P30968 whole entry): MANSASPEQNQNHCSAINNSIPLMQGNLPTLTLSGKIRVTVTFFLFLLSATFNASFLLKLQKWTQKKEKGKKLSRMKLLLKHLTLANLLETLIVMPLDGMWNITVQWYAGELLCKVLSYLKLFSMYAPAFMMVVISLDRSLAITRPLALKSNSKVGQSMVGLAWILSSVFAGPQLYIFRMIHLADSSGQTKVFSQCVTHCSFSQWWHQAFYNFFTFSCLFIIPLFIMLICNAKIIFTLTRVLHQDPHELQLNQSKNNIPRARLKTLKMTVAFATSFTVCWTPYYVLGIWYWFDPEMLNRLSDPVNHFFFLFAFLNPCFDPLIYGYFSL

[3] = target: T2, Gonadotropin-releasing hormone receptor; experiment: Displacement of [D-Trp6]-GnRH from human recombinant GnRH receptor
[4] = target: T1, Gonadotropin-releasing hormone receptor; experiment: Antagonist activity at rat recombinant GnRH receptor assessed as inhibition of [D-Trp6]-GnRH-stimulated LH release from rat pituitary cells; assay type: functional, cell-based, Pituitary gland cell
[5] = Aqueous solubility at pH 7.4; assay type: physicochemical
[6] = Permeability across artificial membrane; assay type: ADME; conditions: PAMPA; read-out: permeability
[7] = Metabolic stability in rat liver microsomes assessed as half life; assay type: ADME, Microsome
[8] = Half life in castrated rat at 1 mg/kg, iv; assay type: ADME, organism-based; set-up: dose 1 mg/kg, route intravenous; conditions: male, in vivo
[9] = Clearance in castrated rat plasma at 1 mg/kg, iv; assay type: ADME, organism-based; set-up: dose 1 mg/kg, route intravenous; conditions: male
[10] = Volume of distribution at steady state in castrated rat at 1 mg/kg, iv; assay type: ADME, organism-based; set-up: dose 1 mg/kg, route intravenous; conditions: male, in vivo, read-out: Vdss
[11] = AUC (0 to infinity) in castrated rat at 1 mg/kg, iv; assay type: ADME, organism-based; set-up: time infinity, dose 1 mg/kg, route intravenous; conditions: male, plasma
[12] = Half life in castrated rat at 20 mg/kg, po; assay type: ADME, organism-based; set-up: dose 20 mg/kg, route oral; conditions: male, in vivo
[13] = Cmax in castrated rat at 20 mg/kg, po; assay type: ADME, organism-based; set-up: dose 20 mg/kg, route oral; conditions: male, in vivo
[14] = Tmax in castrated rat at 20 mg/kg, po; assay type: ADME, organism-based; set-up: dose 20 mg/kg, route oral; conditions: male, in vivo
[15] = AUC (0 to infinity) in castrated rat at 20 mg/kg, po; assay type: ADME, organism-based; set-up: time infinity, dose 20 mg/kg, route oral; conditions: male, plasma
[16] = Oral bioavailability in castrated rat at 20 mg/kg; assay type: ADME, organism-based; conditions: male, in vivo
[17] = tested on: Rattus norvegicus; experiment: Reduction of serum LH level in castrated rat at 30 mg/kg, po after 1 hr; assay type: functional, organism-based; set-up: dose 30 mg/kg
[18] = target: Voltage-gated inwardly rectifying potassium channel KCNH2 (Homo sapiens, UniProt Q12809); experiment: Inhibition of human ERG potassium channel at 2 uM
[19] = target: Opioid receptors; mu/kappa/delta (Homo sapiens, UniProt P41145+P41143+P35372); experiment: Inhibition of human non-selective opioid receptor
[20] = target: T3, Substance-K receptor (Homo sapiens, UniProt P21452); experiment: Inhibition of human neurokinin NK2 receptor
T3 sequence (P21452 whole entry): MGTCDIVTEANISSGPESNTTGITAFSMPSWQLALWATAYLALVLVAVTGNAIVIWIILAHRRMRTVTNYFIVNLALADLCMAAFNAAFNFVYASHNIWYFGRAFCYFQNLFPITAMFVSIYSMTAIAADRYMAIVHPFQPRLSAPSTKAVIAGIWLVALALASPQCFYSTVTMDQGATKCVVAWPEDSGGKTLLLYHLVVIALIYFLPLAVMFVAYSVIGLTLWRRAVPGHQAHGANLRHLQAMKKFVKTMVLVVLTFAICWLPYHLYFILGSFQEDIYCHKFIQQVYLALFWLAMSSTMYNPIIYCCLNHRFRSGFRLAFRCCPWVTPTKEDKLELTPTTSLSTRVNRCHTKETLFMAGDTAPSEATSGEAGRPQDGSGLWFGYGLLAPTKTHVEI

[21] = target: Histamine H2 receptor (Homo sapiens, UniProt P25021); experiment: Inhibition of human histamine H2 receptor
[22] = tested on: Rattus norvegicus; experiment: Reduction of serum LH level in castrated rat at 30 mg/kg, po after 6 hr; assay type: functional, organism-based; set-up: dose 30 mg/kg

Chain of Histamine H2 receptor (P25021 whole entry): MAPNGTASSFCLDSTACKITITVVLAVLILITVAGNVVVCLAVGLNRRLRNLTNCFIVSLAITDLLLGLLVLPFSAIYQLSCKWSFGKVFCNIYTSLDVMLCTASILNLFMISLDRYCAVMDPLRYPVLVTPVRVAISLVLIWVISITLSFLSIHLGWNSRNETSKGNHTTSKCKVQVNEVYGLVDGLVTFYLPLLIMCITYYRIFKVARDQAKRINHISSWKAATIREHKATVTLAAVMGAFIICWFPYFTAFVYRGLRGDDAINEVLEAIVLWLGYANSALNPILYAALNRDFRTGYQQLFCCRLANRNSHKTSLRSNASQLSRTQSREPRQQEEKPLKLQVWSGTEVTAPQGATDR
Chain of Voltage-gated inwardly rectifying potassium channel KCNH2 (Q12809 whole entry): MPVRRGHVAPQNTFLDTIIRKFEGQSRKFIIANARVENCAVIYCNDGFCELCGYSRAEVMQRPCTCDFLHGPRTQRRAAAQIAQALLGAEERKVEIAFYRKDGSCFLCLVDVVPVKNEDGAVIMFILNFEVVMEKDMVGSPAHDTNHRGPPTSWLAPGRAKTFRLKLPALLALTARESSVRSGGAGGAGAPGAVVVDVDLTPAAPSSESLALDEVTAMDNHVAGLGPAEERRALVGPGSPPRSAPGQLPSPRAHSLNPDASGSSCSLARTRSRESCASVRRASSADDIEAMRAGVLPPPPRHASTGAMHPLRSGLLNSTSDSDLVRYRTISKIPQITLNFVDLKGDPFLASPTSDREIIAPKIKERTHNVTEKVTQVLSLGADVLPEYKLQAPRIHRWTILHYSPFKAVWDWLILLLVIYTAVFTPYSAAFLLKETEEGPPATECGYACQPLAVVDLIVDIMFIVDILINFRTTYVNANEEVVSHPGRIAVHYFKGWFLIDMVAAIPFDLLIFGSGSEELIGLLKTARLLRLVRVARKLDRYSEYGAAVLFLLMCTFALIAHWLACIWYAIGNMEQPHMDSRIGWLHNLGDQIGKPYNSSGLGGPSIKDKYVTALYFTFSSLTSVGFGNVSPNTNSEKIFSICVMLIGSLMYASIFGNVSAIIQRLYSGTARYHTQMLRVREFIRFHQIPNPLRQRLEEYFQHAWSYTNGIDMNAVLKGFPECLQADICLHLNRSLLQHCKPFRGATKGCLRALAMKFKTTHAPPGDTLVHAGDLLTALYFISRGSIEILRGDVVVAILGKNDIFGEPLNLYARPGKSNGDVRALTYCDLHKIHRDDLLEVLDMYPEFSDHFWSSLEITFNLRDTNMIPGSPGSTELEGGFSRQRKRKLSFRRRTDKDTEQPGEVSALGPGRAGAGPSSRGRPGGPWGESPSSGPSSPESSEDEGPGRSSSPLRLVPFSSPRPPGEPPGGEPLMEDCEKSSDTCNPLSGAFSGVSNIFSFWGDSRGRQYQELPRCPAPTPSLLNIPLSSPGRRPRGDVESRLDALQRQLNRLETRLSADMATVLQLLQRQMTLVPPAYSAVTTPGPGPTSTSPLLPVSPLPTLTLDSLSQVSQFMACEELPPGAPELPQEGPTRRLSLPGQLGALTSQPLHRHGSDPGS

SMILES	IC50 [1]	IC50 [2]	IC50 [3]	IC50 [4]	solubility [5]	Papp [6]	half-life [7]	further results
CC(C)(C)c1ccc(-c2nc3c(N4CCN(Cc5cccc6nccnc56)CC4)cccc3[nH]2)cc1	–	400 nM	26 nM	5900 nM	–	–	–	–
CC(C)(C)c1ccc(-c2nc3c(N4CCN(Cc5ccc6cccnc6c5)CC4)cccc3[nH]2)cc1	–	140 nM	24 nM	540 nM	4 µg/mL (≈ 8.41 µM)	1.5 ×10⁻⁶ cm/s	–	–
CC(C)(C)c1ccc(-c2nc3c(N4CCN(Cc5ccc6nccnc6c5)CC4)cccc3[nH]2)cc1	71 nM	28 nM	12 nM	350 nM	–	0.23 ×10⁻⁶ cm/s	16 min	half-life [8]: 162 min; clearance [9]: 38 mL/min/kg; Vd [10]: 6.1 L/kg; AUC(0-inf) [11]: 447 ng·h/mL; half-life [12]: 222 min; Cmax [13]: 1330 ng/mL; Tmax [14]: 120 min; AUC(0-inf) [15]: 6640 ng·h/mL; bioavailability [16]: 74%; Activity [17]: Active; Activity [18]: Not Active; Ki [19]: 550 nM; Ki [20]: 330 nM; Ki [21]: 850 nM; Activity [22]: Active
CC(C)(C)c1ccc(-c2nc3c(N4CCN(Cc5ccc6ncccc6c5)CC4)cccc3[nH]2)cc1	–	64 nM	21 nM	830 nM	2 µg/mL (≈ 4.2 µM)	0.4 ×10⁻⁶ cm/s	–	–
CC(C)(C)c1ccc(-c2nc3c(N4CCN(Cc5ccc6[nH]c(=O)c(=O)[nH]c6c5)CC4)cccc3[nH]2)cc1	–	–	–	–	< 1 µg/mL	< 0.1 ×10⁻⁶ cm/s	14 min	–

Further lines, with some results ahead:

IC50 [1]	IC50 [2]	IC50 [3]	IC50 [4]	solubility [5]	Papp [6]	half-life [7]	SMILES	further results
17 nM	7.4 nM	3.5 nM	44 nM	< 1 µg/mL	–	–	Cn1c(=O)c(=O)[nH]c2ccc(CN3CCN(c4cccc5[nH]c(-c6ccc(C(C)(C)C)cc6)nc45)CC3)cc21	–
87 nM	16 nM	16 nM	120 nM	1 µg/mL (≈ 2.02 µM)	0.05 ×10⁻⁶ cm/s	3 min	CC(C)(C)c1ccc(-c2nc3c(N4CCN(Cc5ccc6c(c5)NCC(=O)N6)CC4)cccc3[nH]2)cc1	–
47 nM	14 nM	5.6 nM	69 nM	< 1 µg/mL	0.05 ×10⁻⁶ cm/s	10 min	CC(C)(C)c1ccc(-c2nc3c(N4CCN(Cc5ccc6[nH]c(=O)c(=O)n(Cc7cccnc7)c6c5)CC4)cccc3[nH]2)cc1	–
33 nM	9.7 nM	1.8 nM	240 nM	4 µg/mL (≈ 7.85 µM)	< 0.1 ×10⁻⁶ cm/s	30 min	CC(C)(C)c1ccc(-c2nc3c(N4CCN(Cc5cnc6[nH]c(=O)c(=O)[nH]c6c5)CC4)cccc3[nH]2)cc1	–

Reference: ChEMBL document CHEMBL1153362, “Discovery of 6-({4-[2-(4-tert-butylphenyl)-1H-benzimidazol-4-yl]piperazin-1-yl}methyl)quinoxaline (WAY-207024): an orally active antagonist of the gonadotropin releasing hormone receptor (GnRH-R)” (J Med Chem, 2009)
